Data taken from patent US9226924B2, “Methods of treating or preventing neuropathic pain” (Toray Industries, Inc., priority 2010, dated 2016).

Columns and labels:
[1] = system: mouse models of neuropathic pain (Seltzer's method, sciatic nerve ligation); experiment: von Frey test in mouse Seltzer model of neuropathic pain; assay type: in vivo; conditions: oral
Procedure: 7 to 8 male ICR mice of 5 weeks old were used as one experimental group for evaluation. Mouse models of neuropathic pain were prepared according to Seltzer's method (Seltzer et al., Pain, 1990, vol. 43, p. 205; Malmberg et al., Pain, 1998, vol. 76, p. 215). That is, the sciatic nerve at the femoral region of the right hindlimb of each mouse was exposed under anesthesia, and the sciatic nerve was triply ligated tightly with silk suture of 8-0 (NATSUME SEISAKUSHO) under microscope so that only half thickness of the nerve was trapped in the ligature.
Seven days after the above-described sciatic nerve ligation, using 0.5% methylcellulose as a vehicle, mice of each group received administration of vehicle, administration of a suspension of pregabalin (3 mg/kg) alone, administration of a suspension of Compound 3 (0.3 mg/kg) alone, or administration (combined administration) of a mixed suspension of pregabalin and Compound 3 (3 mg/kg and 0.3 mg/kg, respectively).
Evaluation of neuropathic pain (hereinafter “von Frey test”) was carried out as follows. Mouse models of neuropathic pain were conditioned for at least 1 hour in an acryl cage for measurement (NATSUME SEISAKUSHO) placed on a wire net. Thereafter, using a filament (North Coast Medical. Inc.) which exerted a pressure of 0.16 g, the mice were subjected to mechanical tactile stimulus by applying the filament to the plantar surface of both hindpaws 3 times, each for 3 seconds, with an interval of 3 seconds.
Seven days after sciatic nerve ligation, a von Frey test was carried out before administration of the test compound, 1 hour after administration, 2 hours after administration, and 3 hours after administration. Change in the total scores from before to after administration of the test compound (hereinafter “ΔvF test score”) was calculated by subtracting the total score obtained at each time point after administration of the test compound from the total score obtained before administration of the test compound, which was used as an indicator of analgesic effect.
That is, individual ΔvF test scores of the mice in the group treated with pregabalin alone and the mice in the group treated with Compound 3 alone were sorted in ascending order, respectively, and ΔvF test scores of the two groups at the same rank were added, thereby obtaining a theoretical total value.
The symbol # in the figures indicates a significant difference (###p<0.001) from the group treated with vehicle. […] The symbol * in the figures indicates a significant difference (*p<0.05, **p<0.01) from the theoretical total value.
In the same manner as in Example 1, effects of oral administration of 1, 3, 10 and 30 mg/kg pregabalin alone were evaluated 1 hour after administration in mouse models of neuropathic pain.
(§1) The symbol * in the figure indicates a significant difference (*p<0.025) from the group treated with vehicle.

male ddY mice = experiment: mouse wheel running test (motor inhibitory effect)
Procedure: 8 male ddY mice of 5 weeks old were used as one experimental group for evaluation. The test compound, grouping of mice, vehicle used and administration method were the same as in Example 1.
Mice were placed in a running wheel apparatus (NATSUME SEISAKUSHO) 0.5 hour after administration of the test compound, and the number of revolutions of the running wheel was counted for a period of 1 hour immediately thereafter to evaluate a motor inhibitory effect.
In the same manner as in Example 2, motor inhibitory effects of oral administration of 30 and 100 mg/kg pregabalin were evaluated.
as §1

Row | SMILES | analgesic effect (ΔvF test score) ([1]; 0.3 mg/kg Compound 3 alone, 1 hour, 2 hours and 3 hours after administration, male ICR mice) | motor inhibitory effect (number of revolutions of running wheel) (male ddY mice; 0.3 mg/kg Compound 3 alone, oral, 0.5 to 1.5 hours after administration) | analgesic effect (ΔvF test score) ([1]; 1 mg/kg pregabalin alone, 1 hour after administration (Comparative Example 1)) | analgesic effect (ΔvF test score) ([1]; 3 mg/kg pregabalin alone, 1 hour after administration (Comparative Example 1)) | analgesic effect (ΔvF test score) ([1]; 3 mg/kg pregabalin alone, 1 hour, 2 hours and 3 hours after administration, male ICR mice) | analgesic effect (ΔvF test score) ([1]; 10 mg/kg pregabalin alone, 1 hour after administration (Comparative Example 1), *p<0.025 vs vehicle) | analgesic effect relative to combined administration of 3 mg/kg pregabalin and 0.3 mg/kg Compound 3 ([1]; 30 mg/kg pregabalin alone, 1 hour after administration) | analgesic effect (ΔvF test score) ([1]; 30 mg/kg pregabalin alone, 1 hour after administration (Comparative Example 1), *p<0.025 vs vehicle) | motor inhibitory effect (number of revolutions of running wheel) (male ddY mice; 3 mg/kg pregabalin alone, oral, 0.5 to 1.5 hours after administration) | motor inhibitory effect (number of revolutions of running wheel) (male ddY mice; 30 mg/kg pregabalin alone, oral (Comparative Example 2), *p<0.025 vs vehicle) | motor inhibitory effect (number of revolutions of running wheel) (male ddY mice; 100 mg/kg pregabalin alone, oral (Comparative Example 2), *p<0.025 vs vehicle)
1 | COc1ccc(-n2nc(C3(O)CCC(O)CC3)cc2-c2ccc(C)cc2)cc1 (stereo not drawn) [Compound 3, 1-(1-(4-methoxyphenyl)-5-(p-tolyl)-1H-pyrazol-3-yl)cyclohex-an-cis-1,4-diol] | an analgesic effect was not observed | No statistically-significant motor inhibitory effect was found | – | – | – | – | – | – | – | – | –
2 | CC(C)C[C@H](CN)CC(=O)O [Pregabalin, S-(+)-4-amino-3-(2-methylpropyl) butanoic acid] | – | – | No analgesic effect was observed | No analgesic effect was observed | an analgesic effect was not observed | a statistically-significant analgesic effect was observed | about the same level | a statistically-significant analgesic effect was observed | No statistically-significant motor inhibitory effect was found | statistically significantly reduced the number of revolutions | statistically significantly reduced the number of revolutions
